In US20260273020A1, “OBESTATIN FOR USE AS ANTINEOPLASTIC AGENT IN THE TREATMENT OF PANCREATIC CANCER” (SERVIZO GALEGO DE SAÚDE, priority 2023, published 2026):

Key:
[1] = tested on: aSMA, HSP47, vimentin, collagen I, fibronectin, ADRP; test: Immunoblot of pancreatic tumors: fibrosis and CAF markers; format: in vivo, C57BL/6J mice; settings: obestatin 500 nmol/Kg/72 h
Procedure: (§1) FIG. 6. Immunoblot analysis of aSMA, vimentin, collagen I, fibronectin, and ADPR in the pancreatic tumors of C57BL/6J mice (n=4) orthotopically injected with KPC FC1242 cells and treated with vehicle [NaCl, 0.9% (w/v)] or obestatin (500 nmol/Kg/72 h). Results are expressed as fold of control of the non-treated injected mice [control; mean±SE (*, P<0.05)].
(§2) Mice were weighed at set times over the 15-day period. The sterilized surgical material was used for the tissue extraction. Pancreases and muscles were carefully removed from each animal minimizing contamination with surrounding tissue or mouse hair. Pancreases and muscles were weighed. The skeletal muscles selected were: tibialis anterior, TA; extensor digitorum longus, EDL; gastrocnemius, GAST; soleus, SOL; and diaphragm, DIA. Pancreases were also measured with a scale (cm) and pictures were taken. • Histology—Pancreas samples for histology were fixed in 4% paraformaldehyde in PBS at room temperature overnight. After fixation, samples were dehydrated and embedded in paraffin blocks. For this study, 3-micron sections were cut from each block and placed on pre-cleaned slides (Thermo Fisher Scientific, Waltham, MA, USA). The sectioned tissue slides were covered with a thin layer of paraffin, stoked at 60° C. for 1 hour and stored protected from light at room temperature to preserve the antigenicity of sections. • Immunoblot—For immunoblot analysis, pancreases were immediately frozen in dry ice and stored at −80° C. until use. Tissues were homogenized using a TissueLyser II tissue homogenizer (Qiagen, Hilden, DE), in 200 μL of RIPA lysis buffer at 30 Hz for 3 min. The lysates were clarified by centrifugation (18,000×g, 15 min, 4° C.), and the protein concentration was quantified by the Quantipro™ BCA assay kit (Sigma-Aldrich, St. Louis, MO, US).
(§3) Tissues were disrupted and homogenized in ice-cold lysis buffer [50 mM Tris-HCl pH 7.2, 150 mM NaCl, 1 mM EDTA, 1% (v/v) NP-40, 0.25% (w/v) Na-deoxycholate, protease inhibitor cocktail (PIC; 1:100; Sigma Chemical Co., St. Luis, MO, US), phosphatase inhibitor cocktail (PHIC; 1:100; Sigma Chemical Co., St. Luis, MO, US)] with 5 mm stainless steel beads using a TissueLyser (Qiagen, Hilden, DE) at 30 Hz for 3 min. The soluble cell lysates were pre-cleared by centrifuging at 14,000 rpm for 15 min. Supernatants were recovered and the protein was quantified with BCA Protein Assay Kit (Thermo Fisher Scientific, Rockford, IL, US). The same amount of protein for each sample was separated on 7-15% SDS/polyacrylamide gels and transferred to nitrocellulose membranes (Bio-Rad, Hercules, CA, US). The blots were incubated with 5% bovine serum albumin (BSA) in a Tris buffer solution (TBS) containing Tween-20 [TBST; 20 mM Tris-HCl (pH 8.0), 150 mM NaCl, 0.1% (v/v) Tween-20, solution used for all incubation and washing steps] for 1 h. The blots were then incubated with the corresponding primary antibodies and subsequently were incubated with the corresponding peroxidase-conjugated IgG antibody (Table 1). After washing, the signals were visualized using an ECL plus Western Blotting Detection System (Pierce ECL Western Blotting Substrate; Thermo Fisher Scientific, Pierce, Rockford, IL, US). The image processing was performed using the NIH Image Software ImageJ 1.53o (National Institutes of Health, Bethesda, MD, US).

[2] = tested on: p62, LC3, cleaved caspase 3, Bax, HIF1a; test: Immunoblot of pancreatic tumors: apoptosis, autophagy, HIF1a; format: in vivo, C57BL/6J mice; settings: obestatin 500 nmol/Kg/72 h
Procedure: as §1, with “5.” for “6.”, “p62, LC3, cleaved caspase 3, Bax,” for “aSMA, vimentin, collagen I, fibronectin,”, “HIF1a” for “ADPR”
as §2, §3

KPC FC1242 cells = test: Proliferation assay, cell counting under chronic obestatin treatment; format: cell-based, mouse
Procedure: The murine pancreatic cancer cells KPC FC1242 were isolated from PDAC tumour tissues obtained from LSL-KrasG12D; LSL-Trp53R172H; Pdx1-Cre mice of a pure C57BL/6 background. This cell line was kindly donated by David A. Tuveson (Cold Spring Harbor Laboratory, Cold Spring Harbor, New York, US). KPC FC1242 were maintained in DMEN (Lonza, Basel, CH), and supplemented with 10% fetal bovine serum (FBS; Hyclone, GE Healthcare Life Sciences, South Logan, UT, US), 4.5 g/L glucose, 200 mg/L sodium pyruvate, 584 mg/L L-glutamine and 1% penicillin/streptomycin (Sigma-Aldrich, St. Louis, MO, US) and incubated in an atmosphere containing 5% CO2 at 37° C. These cells were periodically tested and resulted negative for mycoplasma contamination.
For the analysis of proliferation the cells were seeded on 12-well plates at an amount of 50,000 cells per well and maintained for 24 h in culture media (see above) to allow attachment. The medium was completely removed and replaced with serum-free media for additional 24 h. […] Twenty-four h after the last treatment, the cells were trypsinized and manually counted with a Neubauer camera.
The total cells were calculated using the following equations counting 10 squares: […]

[3] = tested on: pNF-kB p65(S536), pSTAT3(S727); test: Immunoblot of pancreatic tumors: NF-kB and STAT3; format: in vivo, C57BL/6J mice; settings: obestatin 500 nmol/Kg/72 h
Procedure: as §1, with “8.” for “6.”, “pNF-kB p65(S536), NF-kB p65, pSTAT3(Y705), pSTAT3(S727),” for “aSMA, vimentin, collagen I, fibronectin,”, “STAT3” for “ADPR”
as §2, with “The sectioned tissue slides were covered with a thin layer of paraffin, stoked at 60° C. for 1 hour and stored protected from light at room temperature to preserve the antigenicity of sections. • Immunoblot—For immunoblot analysis, pancreases were immediately frozen in dry ice and stored at −80° C. until use. Tissues were homogenized using a TissueLyser II tissue homogenizer (Qiagen, Hilden, DE), in 200 μL of RIPA lysis buffer at 30 Hz for 3 min.” left out, “US). […]” for “US).”

Question: What does the source list for obestatin?
Answer: adipophilin (ADRP) diminished [1]: 42.6±8.8%; augment of vimentin [1]: 111.1±19.1%; higher levels of HSP47 [1]: 49.5±17.7%; increased expression of aSMA [1]: 53.7±7.3%; inhibition of expression of collagen [1]: 60.1±2.9%; inhibition of expression of fibronectin [1]: 57.0±7.1%; increased expression of HIF1a ([2]; compared to control or vehicle-treated animals): 106.6±17.8%; diminution in LC3-I ([2]; pancreatic tumors): 9.2±7.5%; increase in cleaved caspase 3 ([2]; pancreatic tumors): 264.6±57.7%; increase in levels of proapoptotic Bax ([2]; pancreatic tumors): 141.6±28.4%; reduction in LC3-II levels ([2]; pancreatic tumors): 21.8±7.3%; upregulation in p62 ([2]; pancreatic tumors): 75.7±20.8%; effect on FBS-mediated proliferation (KPC FC1242 cells; 100 nM obestatin+10% FBS each 24 h for 72 h): significant inhibitory effect; proliferation (number of cells) (KPC FC1242 cells; mouse obestatin (SEQ ID NO: 4) 100 nM each 24 h for 72 h, serum-free): does not activate the proliferation; downregulation of pNF-KB p65(S536) [3]: 43.6±9.0%; downregulation of pSTAT3(S727) [3]: 52.3±12.4%
